# Target: T1, rat EP1 receptor (Rattus norvegicus, UniProt P70597)
# T1 construct: expressed in transfected cells; host or cells: COS-1 cells, transient transfection with Lipofectamine 2000
# T1 sequence (P70597 1-405): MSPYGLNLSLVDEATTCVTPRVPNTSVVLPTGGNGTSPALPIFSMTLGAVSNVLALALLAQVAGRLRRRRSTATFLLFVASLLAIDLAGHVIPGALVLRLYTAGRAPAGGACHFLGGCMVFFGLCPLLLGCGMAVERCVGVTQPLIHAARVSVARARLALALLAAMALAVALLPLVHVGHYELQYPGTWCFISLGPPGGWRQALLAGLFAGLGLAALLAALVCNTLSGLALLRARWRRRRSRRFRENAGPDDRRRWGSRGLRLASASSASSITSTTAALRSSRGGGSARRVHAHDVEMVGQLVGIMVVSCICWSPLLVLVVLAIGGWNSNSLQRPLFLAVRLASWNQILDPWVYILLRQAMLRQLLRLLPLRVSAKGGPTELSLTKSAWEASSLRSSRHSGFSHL
# Test: Test for confirmation of EP1 receptor antagonism: inhibition of prostaglandin E2-induced increase in intracellular calcium concentration in rat EP1 receptor-expressing COS-1 cells
# Format: cell-based
# Conditions: prostaglandin E2 10 nM, intracellular calcium fluorescence signal
# Description: Test for Confirmation of EP1 Receptor Antagonism
# (1) Preparation of Rat EP1 Expression Vector
# Using Rat Kidney BD Marathon-Ready cDNA (Nippon Becton Dickinson Company, Ltd.) as a template, and using a forward primer shown in (SEQ ID NO:1) and a reverse primer shown in (SEQ ID NO:2), a first run of PCR was carried out using KOD-Plus-Ver 2.0 (Toyobo Co., Ltd.). Further, using this amplification product as a template, and using a forward primer shown in (SEQ ID NO:3) and a reverse primer shown in (SEQ ID NO:4), a second run of PCR was carried out in the same manner. The amplification product obtained by the second run of PCR was incorporated into a vector (pcDNA3.1 D/V5-His-TOPO (registered trademark), Invitrogen Japan K. K.). By a conventional method, the vector containing this amplification product was introduced into E. coli (One Shot TOP10 Competent Cells, Invitrogen Corporation) and transformed. This transformed E. coli was cultured in an LB agar medium for one day. After the culture, colonies were selected and cultured in an LB liquid medium containing 50 μg/mL of ampicillin. After the culture, the vector was purified using a QIAprep Spin Miniprep Kit (Qiagen K. K.). The base sequence of the insertion site of this vector (SEQ ID NO:5) was compared with the rat EP1 base sequence (Ptger1) registered as Accession No. NM_013100 in a publicly-known database (NCBI), and as a result, the base sequences completely matched except for a single base. Further, the amino acid sequence translated by the base sequence completely matched the amino acid sequence of the rat EP1 receptor registered as an NCBI Accession No. NP_037232. Therefore, it was confirmed that the cloned gene sequence was a base sequence of the rat EP1 receptor and the obtained amino acid sequence was that of the rat EP1 receptor. The pcDNA3.1 D/V5-His-TOPO (registered trademark) into which the nucleic acid shown in (SEQ ID NO:5) had been inserted was taken as a rat EP1-expressing vector.
# (2) Preparation of Rat EP1 Receptor-Expressing Cells
# COS-1 cells (Dainippon Sumitomo Pharma Co., Ltd.) were cultured until they reached confluence in an incubator at 37° C. under a 5% CO2 gas condition, using a D-MEM liquid medium (high glucose and L-glutamine contained, Invitrogen Corporation) to which a penicillin-streptomycin solution (Invitrogen Corporation, final concentration: 100 U/mL as benzylpenicillin; 100 μg/mL as streptomycin) as an antibiotic, MEM nonessential amino acids (Invitrogen Corporation, final concentration: 0.1 mM), and fetal calf serum (Sanko Junyaku Co., Ltd., final concentration: 10%) were added.
# (2-2) COS-1 Cell Subculture
# The cells that had reached confluence were stripped with 0.05% trypsin/0.53 mM EDTA•4Na (Invitrogen Japan K. K.) and resuspended in the liquid medium. The resuspended cells were diluted and cultured in the liquid medium at a spread ratio from 1:4 to 1:8.
# (2-3) Preparation of Cells for Introduction of Rat EP1-Expressing Vector
# The cells that had reached confluence were stripped with 0.05% trypsin/0.53 mM EDTA•4Na, and resuspended in a D-MEM liquid medium (high glucose and L-glutamine contained, Invitrogen Corporation) to which MEM nonessential amino acids (final concentration: 0.1 mM) and fetal calf serum (final concentration: 10%) were added. In each well of a Poly D-lysine-coated 96-well microplate (BD BioCoat (registered trademark), Nippon Becton Dickinson Company, Ltd.), this resuspended cell suspension culture was prepared to be 5×10^4 cells/well in 100 μL of the liquid medium, and 100 μL of the cell suspension was dispensed and seeded in each well. After seeding, the cells were cultured in an incubator at 37° C. under a 5% CO2 gas condition. Once the cells for introduction of a rat EP1-expressing vector were adhered (about 2 hours after seeding), introduction of the rat EP1-expressing vector was carried out in the following order.
# (2-4) Introduction of Rat EP1-Expressing Vector […]
row,IC50 [nM],SMILES
1,31,"CCC(C)c1cc2cc(OC)c(Cl)cc2n1Cc1cccc(C(=O)NS(=O)(=O)CC)n1 (stereo not shown) [Example 4-2, 6-[2-(butan-2-yl)-6-chloro-5-methoxyindol-1-ylmethyl]-N-(ethanesulfonyl)pyridine-2-carboxamide]"
2,30,"CCCS(=O)(=O)NC(=O)c1cccc(Cn2c(-c3ccccc3)cc3cc(OC)ccc32)n1 [Example 4-12, 6-(5-methoxy-2-phenylindol-1-ylmethyl)-N-(propane-1-sulfonyl)pyridine-2-carboxamide]"
3,35,"COc1cc2cc(-c3ccoc3)n(Cc3cccc(-c4nnn[nH]4)n3)c2cc1Cl [Example 5-4, 6-chloro-2-(furan-3-yl)-5-methoxy-1-[6-(1H-1,2,3,4-tetrazol-5-yl)pyridin-2-ylmethyl]-1H-indole]"
4,43,"CCCS(=O)(=O)NC(=O)c1cccc(Cn2c(C(C)CC)cc3cc(OC)ccc32)n1 (stereo not shown) [Example 4-16, 6-[2-(butan-2-yl)-5-methoxyindol-1-ylmethyl]-N-(propane-1-sulfonyl)pyridine-2-carboxamide]"
5,49,"CCC(C)c1cc2cc(OC)ccc2n1Cc1cccc(C(=O)NS(=O)(=O)C(C)C)n1 (stereo not shown) [Example 4-17, 6-[2-(butan-2-yl)-5-methoxyindol-1-ylmethyl]-N-(propane-2-sulfonyl)pyridine-2-carboxamide]"
6,63,"COc1ccc2c(c1)cc(-c1ccccc1)n2Cc1cccc(C(=O)NS(=O)(=O)C2CC2)n1 [Example 4-14, N-(cyclopropanesulfonyl)-6-(5-methoxy-2-phenylindol-1-ylmethyl)pyridine-2-carboxamide]"
7,23,"CCC(C)c1cc2cc(OC)ccc2n1Cc1cccc(-c2nnn[nH]2)n1 (stereo not shown) [Example 5-1, 2-(butan-2-yl)-5-methoxy-1-[6-(1H-1,2,3,4-tetrazol-5-yl)pyridin-2-ylmethyl]-1H-indole]"
8,28,"COc1cc2cc(-c3ccccc3)n(Cc3cccc(C(=O)NS(=O)(=O)C4CC4)n3)c2cc1F [Example 4-23, N-(cyclopropanesulfonyl)-6-(6-fluoro-5-methoxy-2-phenylindol-1-ylmethyl)pyridine-2-carboxamide]"
9,33,"COc1cc2cc(C3(C)CC3)n(Cc3cccc(-c4nnn[nH]4)n3)c2cc1Cl [Example 5-6, 6-chloro-5-methoxy-2-(1-methylcyclopropyl)-1-[6-(1H-1,2,3,4-tetrazol-5-yl)pyridin-2-ylmethyl]-1H-indole]"
10,37,"COc1ccc2c(c1)cc(-c1ccccc1)n2Cc1cccc(C(=O)NS(=O)(=O)C(C)C)n1 [Example 4-13, 6-(5-methoxy-2-phenylindol-1-ylmethyl)-N-(propane-2-sulfonyl)pyridine-2-carboxamide]"
11,22,"COc1cc2cc(-c3ccccc3)n(Cc3cccc(-c4noc(=O)[nH]4)n3)c2cc1F [Example 6-6, 3-[6-(6-fluoro-5-methoxy-2-phenylindol-1-ylmethyl)pyridin-2-yl]-4,5-dihydro-1,2,4-oxadiazol-5-one]"
12,31,"COc1cc2cc(-c3ccccc3)n(Cc3cccc(-c4nnn[nH]4)n3)c2cc1F [Example 5-3, 6-fluoro-5-methoxy-2-phenyl-1-[6-(1H-1,2,3,4-tetrazol-5-yl)pyridin-2-ylmethyl]-1H-indole]"
13,32,"COc1cc2cc(-c3ccsc3)n(Cc3cccc(-c4nnn[nH]4)n3)c2cc1F [Example 2-4, 6-fluoro-5-methoxy-1-[6-(1H-1,2,3,4-tetrazol-5-yl)pyridin-2-ylmethyl]-2-(thiophen-3-yl)-1H-indole]"
14,42,"COc1ccc2c(c1)cc(-c1ccccc1)n2Cc1ccc(-c2nnn[nH]2)o1 [Example 2-2, 5-methoxy-2-phenyl-1-[5-(1H-1,2,3,4-tetrazol-5-yl)furan-2-ylmethyl]-1H-indole]"
15,81,"CCS(=O)(=O)NC(=O)c1cccc(Cn2c(-c3ccccc3)cc3cc(OC)ccc32)n1 [Example 1-12, N-(ethanesulfonyl)-6-(5-methoxy-2-phenylindol-1-ylmethyl)pyridine-2-carboxamide]"
16,40,"CCS(=O)(=O)NC(=O)c1cccc(Cn2c(-c3ccccc3)cc3cc(OC)c(F)cc32)n1 [Example 4-20, N-(ethanesulfonyl)-6-(6-fluoro-5-methoxy-2-phenylindol-1-ylmethyl)pyridine-2-carboxamide]"
17,67,"COc1cc2cc(-c3ccccc3)n(Cc3cccc(-c4nnn[nH]4)n3)c2cc1Cl [Example 2-3, 6-chloro-5-methoxy-2-phenyl-1-[6-(1H-1,2,3,4-tetrazol-5-yl)pyridin-2-ylmethyl]-1H-indole]"
18,64,"COc1ccc2c(c1)cc(C1(C)CC1)n2Cc1ccc(-c2nnn[nH]2)o1 [Example 5-7, 5-methoxy-2-(1-methylcyclopropyl)-1-[5-(1H-1,2,3,4-tetrazol-5-yl)furan-2-ylmethyl]-1H-indole]"
19,60,"COc1cc2cc(-c3ccccc3)n(Cc3cccc(C(=O)NS(C)(=O)=O)n3)c2cc1F [Example 4-19, 6-(6-fluoro-5-methoxy-2-phenylindol-1-ylmethyl)-N-(methanesulfonyl)pyridine-2-carboxamide]"
20,59,"CCCS(=O)(=O)NC(=O)c1cccc(Cn2c(-c3ccccc3)cc3cc(OC)c(F)cc32)n1 [Example 4-22, 6-(6-fluoro-5-methoxy-2-phenylindol-1-ylmethyl)-N-(propane-1-sulfonyl)pyridine-2-carboxamide]"
21,49,"COc1cc2cc(-c3ccsc3)n(Cc3cccc(C(=O)NS(C)(=O)=O)n3)c2cc1F [Example 1-5, 6-[6-fluoro-5-methoxy-2-(thiophen-3-yl)indol-1-ylmethyl]-N-(methanesulfonyl)pyridine-2-carboxamide]"
22,31,"CCC(C)c1cc2cc(OC)ccc2n1Cc1cccc(C(=O)NS(=O)(=O)C2CC2)n1 (stereo not shown) [Example 4-18, 6-[2-(butan-2-yl)-5-methoxyindol-1-ylmethyl]-N-(cyclopropanesulfonyl)pyridine-2-carboxamide]"
23,47,"CCS(=O)(=O)NC(=O)c1cccc(Cn2c(-c3cc(F)ccc3F)cc3cc(OC)ccc32)n1 [Example 4-5, 6-[2-(2,5-difluorophenyl)-5-methoxyindol-1-ylmethyl]-N-(ethanesulfonyl)pyridine-2-carboxamide]"
24,97,"COc1cc2cc(-c3ccccc3)n(Cc3cccc(C(=O)NC#N)n3)c2cc1F [Example 8-7, N-cyano-6-(6-fluoro-5-methoxy-2-phenylindol-1-ylmethyl)pyridine-2-carboxamide]"
25,46,"CCC(C)c1cc2cc(OC)ccc2n1Cc1cccc(C(=O)NS(=O)(=O)CC)n1 (stereo not shown) [Example 4-10, 6-[2-(butan-2-yl)-5-methoxyindol-1-ylmethyl]-N-(ethanesulfonyl)pyridine-2-carboxamide]"

# — patent publication US8796247B2, “Indole derivative, and pharmacologically acceptable salt thereof” (Kissei Pharmaceutical Co., Ltd., priority 2011, dated 2014)
